Test results as given in patent publication US20130217735A1, “FUNGICIDAL COMPOSITIONS AND METHODS OF USE” (Agri-Food and BioSciences Institute, priority 2010, published 2013).
Read-outs that look alike come from different tables or passages of the source.

Key:
[1] = Thermogravimetric analysis (thermal stability); format: physicochemical; conditions: TGA under nitrogen, 5° C./min
Protocol: Thermogravimetric analysis was performed on a Mettler Toledo Star^e TGA/DSC (Leicester, UK) under nitrogen. Samples between 5 and 10 mg were placed in open alumina pans and were heated from 25° C. to 600° C. with a heating rate of 5° C./min. Decomposition temperatures (T5% dec) were reported from onset to 5 wt % mass loss Infrared spectra were recorded as neat samples from 4000-450 cm^−1 on a Perkin-Elmer Spectrum 65 FT-IR spectrometer fitted with a Universal ATR Sampling Accessory. Differential scanning calorimetry (DSC) was performed on a Mettler Toledo Star^e DSC (Leicester, UK) under nitrogen. Samples between 5 and 10 mg were heated from 25° C. to 110° C. at a heating rate of 5° C./min followed by a 5 min isotherm. A cooling rate of 5° C./min to −70° C. was followed by a 5 min isotherm at −70° C., and the cycle was repeated twice. A melting transition was observed as single-event peak in the first run. […] Transitions above ambient temperature were confirmed optically on a Stuart SMP3 melting point apparatus.

[2] = tested on: Phytophthora erythroseptica; assay: Example 7 sensitivity testing of potato tuber pathogens to thiabendazole derivatives; format: cell-based; conditions: for inhibition at 25 µM / inhibition at 250 µM: Phytophthora erythroseptica, read-out: Inhibition (%) of mycelial growth; for inhibition at 25 µM / inhibition at 250 µM / Inhibition (%) of mycelial growth: Trial B
Protocol: (§1) In vitro tests of the IL thiabendazolium docusate were performed in comparison to the neutral fungicide using selected isolates of Fusarium spp., the cause of potato dry rot. F. coeruleum and F. culmorum are sensitive to thiabendazole whereas isolates of F. sambucinum are frequently resistant. Isolates of Phoma spp., the cause of gangrene, and Phytophthora erythroseptica, the cause of pink rot, were also tested. All except F. sambucinum ex SASA were isolated in a laboratory. F. sambucinum ex SASA was supplied by SASA (Science and Advice for Scottish Agriculture, Roddinglaw Road, Edinburgh, EH12 9F, UK).
(§2) In each test three replicate plates for each organism per concentration were used and tests were repeated at least once.

P. foveata = assay: Example 5 agar plate mycelial growth test of TBZ derivatives; conditions: Trial A; for Inhibition (%) of mycelial growth: isolate P. foveata BL2 05 T3
Protocol: (§3) Both TBZ docusate and TBZ stearate were tested at final concentrations of 250 μm and 25 μm in agar. To prepare the TBZ docusate stock solution for 250 μm, 0.155 g of TBZ docusate prepared according to Trial A was added to a 10 mL volumetric flask and was dissolved in 10 mL of ethanol. The solution was mixed thoroughly. To prepare the TBZ docusate stock solution for 25 μm, 1 ml of the above stock solution was pipetted into a second 10 mL flask and 10 mL ethanol was added. The solution was mixed thoroughly. To prepare the TBZ stearate stock solution for 250 μm, 0.121 g of TBZ stearate was added to a 10 mL volumetric flask and was dissolved in 10 mL ethanol. The solution was mixed thoroughly. To prepare the TBZ stearate stock solution for 25 μm, 1 mL of the 250 μm TBZ stearate stock solution was pipetted into a second 10 mL flask and 10 mL ethanol was added. The solution was mixed thoroughly.
(§4) The agar was prepared and autoclaved. Potato dextrose agar (PDA) was used for the Fusarium species and Phytophthora erythroseptica and malt agar was used for the Phoma species. The agar was allowed to cool to 50° C. Each of the stock solutions was added to the agar at the rate of 10 mL stock solution per liter of agar to give the two final concentrations, for both TBZ stearate and docusate, in agar. Also prepared were a 1% ethanol control (10 mL per liter of agar) and an untreated agar as a second control. The plates were prepared in triplicate for each concentration.
(§5) For each pathogen isolate tested, 3 plates of 250 μm/1, 3 plates of 25 μm/1, 3 plates of 1% ethanol, and 3 plates of untreated agar were inoculated using an agar plug cut with a no. 3 cork borer from the margin of an actively-growing culture on agar. The plates were incubated at an appropriate temperature (usually 18-20° C.) in darkness. The growth rate was monitored and assessed after 5-7 days. The growth was assessed by measuring colony diameters minus plug (two measurements at right-angles) per plate. The percent reduction was calculated with respect to the control.
(§6) Pure thiabendazole (TBZ; 0.5 g) obtained from MSD Agvet (Rahway, N.J.) was dissolved in water (10 mL) by adding the minimum required volume (c. 0.5 mL) of hypophosphorous acid and heating gently with stirring, then made up to 100 mL with water to give a stock solution (25 mM). TBZ docusate (0.155 g) or TBZ stearate (0.121 g) was dissolved in ethanol (100 ml) to give stock solutions (25 mM). A ten-fold dilution of each of these stock solutions was prepared (in water for TBZ and in ethanol for TBZ docusate and stearate). […] In addition, agar with 1% v/v ethanol and unamended agar was prepared (ethanol and unamended controls). The agar was poured into Petri plates (9 cm) and allowed to set.
(§7) Isolates of the appropriate potato tuber pathogens were grown on PDA for Fusarium spp. and Phytophthora erythroseptica or on MA for Phoma spp. Each isolate to be tested was inoculated onto three replicate plates of the two concentrations of each compound and onto ethanol and unamended agar controls using plugs (6 mm diameter) cut from the margins of actively growing cultures. Plates were incubated in darkness at 20° C. and mycelial growth measured (two measurements at right-angles for each plate) after 5-7 days (depending on the growth rates).

P. erythroseptica = assay: as above; conditions: Trial A; for Inhibition (%) of mycelial growth: isolate P. erythroseptica BL2/08 P31
Protocol: as §3, §4, §5, §6, §7

F. sulphureum = assay: as above; conditions: 5-7 days, TBZ docusate Trial A; for Inhibition (%) of mycelial growth: isolate F. sulphureum ex SASA
Protocol: as §3, §4, §5, §6, §7

P. exigua = assay: as above; conditions: Trial A; for Inhibition (%) of mycelial growth: isolate P. exigua 9.1
Protocol: as §3, §4, §5, §6, §7

F. coeruleum [3] = assay: as above; conditions: Trial A; for Inhibition (%) of mycelial growth: isolate F. coeruleum ex B7/06 T8
Protocol: as §3, §4, §5, §6, §7

F. sambucinum = assay: Example 7 sensitivity testing of potato tuber pathogens to thiabendazole derivatives; format: cell-based; conditions: Trial B; for inhibition at 25 µM / inhibition at 250 µM: Fusarium sambucinum, read-out: Inhibition (%) of mycelial growth
Protocol: as §1, §2

F. coeruleum [4] = assay: as above; format: cell-based; conditions: Trial B; for inhibition at 25 µM / inhibition at 250 µM: read-out: Inhibition (%) of mycelial growth
Protocol: as §1, §2

Phoma exigua = assay: as above; format: cell-based; conditions: isolate Phoma exigua 9.1, Trial B
Protocol: as §1, §2

Phoma foveata = assay: as above; format: cell-based; conditions: isolate Phoma foveata BL2 05 T3, Trial B
Protocol: as §1, §2

F. culmorum [5] = assay: as above; format: cell-based; conditions: isolate F. culmorum P13, Trial B
Protocol: as §1, §2

F. culmorum [6] = assay: Example 5 agar plate mycelial growth test of TBZ derivatives; format: cell-based; conditions: isolate F. culmorum P13, Trial A
[7] = isolate F. sambucinum L'gall 11, 25 μM in agar
[8] = isolate F. sambucinum L'gall 11, 250 μM in agar
[9] = isolate F. sambucinum L'gall 53, 25 μM in agar
[10] = isolate F. sambucinum L'gall 53, 250 μM in agar
[11] = isolate F. sambucinum ex SASA, 25 μM in agar
[12] = isolate F. sambucinum ex SASA, 250 μM in agar, vs 1% ethanol control
[13] = isolate F. coeruleum ex B7/06 T8, 25 μM in agar
[14] = isolate F. coeruleum ex B7/06 T8, 250 μM in agar
[15] = isolate F. coeruleum ex B16/08 P31, 25 μM in agar
[16] = isolate F. coeruleum ex B16/08 P31, 250 μM in agar
[17] = isolate Phytophthora erythroseptica BL2/08 P31, 25 μM in agar
[18] = isolate Phytophthora erythroseptica BL2/08 P31, 250 μM in agar
[19] = isolate Phytophthora erythroseptica Rooster Eire, 25 μM in agar
[20] = isolate Phytophthora erythroseptica Rooster Eire, 250 μM in agar

With `c1ccc2[nH]c(-c3cscn3)nc2c1` [TBZ docusate, thiabendazolium docusate] the “T5% onset (decomposition temperature, onset to 5 wt % mass loss)” value [1] was 252.0 °C and the “activity against P. erythroseptica compared with thiabendazole alone” value ([2]; in words, Table 5) was “more active”.

Work on `c1ccc2[nH]c(-c3cscn3)nc2c1` [TBZ, thiabendazole, reference compound] yielded an inhibition at 25 µM (P. foveata; Boeremia foveata, read-out: Inhibition (%) of mycelial growth, isolate P. foveata BL2 05 T3, 25 μM in agar) of 98%, an inhibition at 250 µM (P. foveata; Boeremia foveata, read-out: Inhibition (%) of mycelial growth, isolate P. foveata BL2 05 T3, 250 μM in agar) of 100% and an inhibition at 250 µM (P. erythroseptica; Phytophthora erythroseptica, read-out: Inhibition (%) of mycelial growth, isolate P. erythroseptica BL2/08 P31, 250 μM in agar) of 76%. For the same compound, the “Inhibition (%) of mycelial growth” value (P. erythroseptica; 25 μM in agar) was 9%, the inhibition at 25 µM (F. sulphureum; read-out: Inhibition (%) of mycelial growth, isolate F. sulphureum ex SASA, 25 μM in agar) was 17% and the inhibition at 250 µM (F. sulphureum; read-out: Inhibition (%) of mycelial growth, isolate F. sulphureum ex SASA, 250 μM in agar) was 87%. It also gave an inhibition at 25 µM (P. exigua; Boeremia inoxydabilis, read-out: Inhibition (%) of mycelial growth, isolate P. exigua 9.1, 25 μM in agar) of 92%, an inhibition at 250 µM (P. exigua; Boeremia inoxydabilis, read-out: Inhibition (%) of mycelial growth, isolate P. exigua 9.1, 250 μM in agar) of 100% and an inhibition at 25 µM (F. coeruleum [3]; read-out: Inhibition (%) of mycelial growth, isolate F. coeruleum ex B7/06 T8, 25 μM in agar) of 99%. The inhibition at 250 µM (F. coeruleum [3]; read-out: Inhibition (%) of mycelial growth, isolate F. coeruleum ex B7/06 T8, 250 μM in agar) was 98%, the inhibition at 25 µM (F. sambucinum; [7]) was 8% and the inhibition at 250 µM (F. sambucinum; [8]) was 76%. The inhibition at 25 µM (F. sambucinum; [9]) was 19%, the inhibition at 250 µM (F. sambucinum; [10]) was 93% and the inhibition at 25 µM (F. sambucinum; [11]) was 22%. The inhibition at 250 µM (F. sambucinum; [12]) was 89%, the inhibition at 25 µM (F. coeruleum [4]; [13]) was 99% and the inhibition at 250 µM (F. coeruleum [4]; [14]) was 99%. For the same compound, the inhibition at 25 µM (F. coeruleum [4]; [15]) was 100%, the inhibition at 250 µM (F. coeruleum [4]; [16]) was 100% and the inhibition at 25 µM [2, 17] was 4%. The inhibition at 250 µM [2, 18] was 51%, the inhibition at 25 µM [2, 19] was 8% and the inhibition at 250 µM [2, 20] was 31%. It also gave an inhibition at 25 µM (Phoma exigua; 25 μM in agar, read-out: Inhibition (%) of mycelial growth) of 95%, an inhibition at 250 µM (Phoma exigua; 250 μM in agar, read-out: Inhibition (%) of mycelial growth) of 100% and an inhibition at 25 µM (Phoma foveata; Boeremia foveata, 25 μM in agar, read-out: Inhibition (%) of mycelial growth) of 98%. It also gave an inhibition at 250 µM (Phoma foveata; Boeremia foveata, 250 μM in agar, read-out: Inhibition (%) of mycelial growth) of 100%, an inhibition at 25 µM (F. culmorum [5]; Fusarium culmorum, 25 μM in agar, read-out: Inhibition (%) of mycelial growth) of 100% and an inhibition at 250 µM (F. culmorum [5]; Fusarium culmorum, 250 μM in agar, read-out: Inhibition (%) of mycelial growth) of 100%. For the same compound, the inhibition at 25 µM (F. culmorum [6]; Fusarium culmorum, 25 μM in agar) was 100% and the inhibition at 250 µM (F. culmorum [6]; Fusarium culmorum, 250 μM in agar) was 100%.

In the case of `CCn1cc[n+](C)c1.CCn1cc[n+](C)c1.S=C([S-])NCCNC(=S)[S-]` [[C2mim]2ebdtc, di(1-ethyl-3-methylimidazolium)ethylenbis-(dithiocarbamate)], the “T5% onset (decomposition temperature, onset to 5 wt % mass loss)” value [1] is reported as 147.1.

In the case of thiabendazolium docusate [TBZ docusate], the “Inhibition (%) of mycelial growth” value (P. foveata; 25 μM in agar) is reported as 95%, the “Inhibition (%) of mycelial growth” value (P. foveata; 250 μM in agar) is reported as 99% and the “Inhibition (%) of mycelial growth” value (P. erythroseptica; 25 μM in agar) is reported as 62%. For the same compound, the “Inhibition (%) of mycelial growth” value (P. erythroseptica; 250 μM in agar) was 100%, the “Inhibition (%) of mycelial growth” value (F. sulphureum; 25 μM in agar) was 27% and the “Inhibition (%) of mycelial growth” value (F. sulphureum; 250 μM in agar) was 97%. For the same compound, the “Inhibition (%) of mycelial growth” value (P. exigua; 25 μM in agar) was 90%, the “Inhibition (%) of mycelial growth” value (P. exigua; 250 μM in agar) was 98% and the “Inhibition (%) of mycelial growth” value (F. coeruleum [3]; 25 μM in agar) was 98%. For the same compound, the “Inhibition (%) of mycelial growth” value (F. coeruleum [3]; 250 μM in agar) was 98%, the “Inhibition (%) of mycelial growth” value (F. sambucinum; [7]) was 19% and the “Inhibition (%) of mycelial growth” value (F. sambucinum; [8]) was 83%. The “Inhibition (%) of mycelial growth” value (F. sambucinum; [9]) was 11%, the “Inhibition (%) of mycelial growth” value (F. sambucinum; [10]) was 68% and the “Inhibition (%) of mycelial growth” value (F. sambucinum; [11]) was 19%. The “Inhibition (%) of mycelial growth” value (F. sambucinum; [12]) was 96%, the “Inhibition (%) of mycelial growth” value (F. coeruleum [4]; [13]) was 99% and the “Inhibition (%) of mycelial growth” value (F. coeruleum [4]; [14]) was 99%. The “Inhibition (%) of mycelial growth” value (F. coeruleum [4]; [15]) was 100%, the “Inhibition (%) of mycelial growth” value (F. coeruleum [4]; [16]) was 100% and the “Inhibition (%) of mycelial growth” value [2, 17] was 33%. The “Inhibition (%) of mycelial growth” value [2, 18] was 97%, the “Inhibition (%) of mycelial growth” value [2, 19] was 11% and the “Inhibition (%) of mycelial growth” value [2, 20] was 91%. For the same compound, the “Inhibition (%) of mycelial growth” value (Phoma exigua; 25 μM in agar) was 94%, the “Inhibition (%) of mycelial growth” value (Phoma exigua; 250 μM in agar) was 99% and the “Inhibition (%) of mycelial growth” value (Phoma foveata; 25 μM in agar) was 95%. The “Inhibition (%) of mycelial growth” value (Phoma foveata; 250 μM in agar) was 99%, the “Inhibition (%) of mycelial growth” value (F. culmorum [5]; 25 μM in agar) was 100% and the “Inhibition (%) of mycelial growth” value (F. culmorum [5]; 250 μM in agar) was 100%. For the same compound, the “Inhibition (%) of mycelial growth” value (F. culmorum [6]; 25 μM in agar) was 100% and the “Inhibition (%) of mycelial growth” value (F. culmorum [6]; 250 μM in agar) was 100%.
